We go through 39 molecules from patent US20070027150A1 (priority 2005, published 2007).

As a reminder, the IC50 is the point on the concentration scale where inhibition reaches its midpoint.

Each structure is given as a SMILES string.

This test deals with His-tagged N-terminal ATP binding domain (amino acid residues 9-236) of HSP90α (Homo sapiens, UniProt P07900). Put plainly: HSP90 inhibitor binding potency: TRF competition binding assay. The settings on record: Table I; read-out: Hsp90 IC50 Range. As to the method:
HSP90 Inhibitor Binding Potency: TRF Binding Assay
In this example, the binding potency of HSP90 inhibitors as measured by a TRF binding assay is described.
TRF competition binding assays were performed to determine the binding potency (IC50 values) of HSP90 inhibitors. Purified His-tagged N-terminal ATP binding domain (amino acid residues 9-236) of HSP90α (HSP90α GeneID: 3320; mRNA Sequence NM_005348) was incubated for two hours at room temperature in binding buffer (50 mM HEPES, 6 mM MgCl2, 20 mM KCl and 0.1% BSA) with biotinylated radicicol and progressively higher concentrations of the competing compounds. A fraction of the mixture was transferred to capture plates (coated with streptavidin) and incubated for one hour at room temperature. After washing with DELFIA wash buffer, europium-labeled anti-his antibody was added and incubated for two hours at room temperature, followed by washing with DELFIA buffer. DELFIA enhancement solution was then added. After gentle shaking for 10 minutes, the plates were read in VICTOR for europium counts.
In the case of `Cc1nc(N)nc2c1C(=O)CC(c1ccccc1-c1ncccn1)C2` (stereo not drawn) [Compound 32, 2-amino-4-methyl-7-(2-pyrimidin-2-ylphenyl)-7,8-dihydroquinazolin-5(6H)-one], the IC50 is less than 1000 nM.

For `Cc1nc(N)nc2c1C(=O)CC(c1cccnc1-c1ccccn1)C2` (stereo not drawn) [Compound 33, 2-amino-7-(2,2′-bipyridin-3-yl)-4-methyl-7,8-dihydroquinazolin-5(6H)-one], the IC50 was 1000 to 10000 nM.

Regarding `Cc1nc(N)nc2c1C(=O)CC(c1cccnc1-c1cnccn1)C2` (stereo not drawn) [Compound 34, 2-amino-4-methyl-7-(2-pyrazin-2-ylpyridin-3-yl)-7,8-dihydroquinazolin-5(6H)-one], the IC50 lay within 1000 to 10000 nM.

Consider `Cc1nc(N)nc2c1C(=O)CC(c1ccccc1-c1nccs1)C2` (stereo not drawn) [Compound 35, 2-amino-4-methyl-7-[2-(1,3-thiazol-2-yl)phenyl]-7,8-dihydroquinazolin-5(6H)-one], for which the IC50 is less than 1000 nM.

With `Cc1nc(N)nc2c1C(=O)CC(c1cccnc1-c1nccs1)C2` (stereo not drawn) [Compound 36, 2-amino-4-methyl-7-[2-(1,3-thiazol-2-yl)pyridin-3-yl]-7,8-dihydroquinazolin-5(6H)-one], the IC50 fell in the range of 1000 to 10000 nM.

In the case of `Cc1nc(N)nc2c1C(=O)CC(c1ccccc1C#Cc1ccccc1)C2` (stereo not drawn) [Compound 37, 2-amino-4-methyl-7-[2-(phenylethynyl)phenyl]-7,8-dihydroquinazolin-5(6H)-one], the IC50 is greater than 10000 nM.

Regarding `Cc1nc(N)nc2c1C(=O)CC(c1c(-c3ccccn3)cccc1-c1ccccn1)C2` (stereo not drawn) [Compound 38, 2-amino-7-(2,6-dipyridin-2-ylphenyl)-4-methyl-7,8-dihydroquinazolin-5(6H)-one], the IC50 was less than 1000 nM.

As to `Cc1nc(N)nc2c1C(=O)CC(c1ccccc1-c1cn[nH]c1)C2` (stereo not drawn) [Compound 39, 2-amino-4-methyl-7-[2-(1H-pyrazol-4-yl)phenyl]-7,8-dihydroquinazolin-5(6H)-one], the IC50 lay in the range of 1000 to 10000 nM.

As to `Cc1nc(N)nc2c1C(=O)CC(c1ccccc1C1=CCCC1)C2` (stereo not drawn) [Compound 40, 2-amino-7-(2-cyclopent-1-en-1-ylphenyl)-4-methyl-7,8-dihydroquinazolin-5(6H)-one], the IC50 is less than 1000 nM.

For the molecule `Cc1nc(N)nc2c1C(=O)CC(c1ccccc1-c1ccccc1)C2` (stereo not drawn) [Compound 41, 2-amino-7-(1,1′-biphenyl-2-yl)-4-methyl-7,8-dihydroquinazolin-5(6H)-one], the IC50 was less than 1000 nM.

Take `Cc1nc(N)nc2c1C(=O)CC(c1ccccc1-c1cncnc1)C2` (stereo not drawn) [Compound 42, 2-amino-4-methyl-7-(2-pyrimidin-5-ylphenyl)-7,8-dihydroquinazolin-5(6H)-one]: the IC50 is less than 1000 nM.

For `Cc1nc(N)nc2c1C(=O)CC(c1ccccc1-c1cnn(C)c1)C2` (stereo not drawn) [Compound 43, 2-amino-4-methyl-7-[2-(1-methyl-1H-pyrazol-4-yl)phenyl]-7,8-dihydroquinazolin-5(6H)-one], the IC50 is 1000 to 10000 nM.

`Cc1nc(N)nc2c1C(=O)CC(c1ccccc1C1=CCCCC1)C2` (stereo not drawn) [Compound 44, 2-amino-7-(2-cyclohex-1-en-1-ylphenyl)-4-methyl-7,8-dihydroquinazolin-5(6H)-one]: the IC50 was less than 1000 nM.

As to `Cc1nc(N)nc2c1C(=O)CC(c1cccnc1C1=CCCCC1)C2` (stereo not drawn) [Compound 45, 2-amino-7-(2-cyclohex-1-en-1-ylpyridin-3-yl)-4-methyl-7,8-dihydroquinazolin-5(6H)-one], the IC50 is less than 1000 nM.

Consider `Cc1nc(N)nc2c1C(=O)CC(c1ccccc1-c1ccsc1)C2` (stereo not drawn) [Compound 46, 2-amino-4-methyl-7-(2-thien-3-ylphenyl)-7,8-dihydroquinazolin-5(6H)-one], for which the IC50 was less than 1000 nM.

With `Cc1nc(N)nc2c1C(=O)CC(c1nn(C)cc1C1CCCCC1)C2` (stereo not drawn) [Compound 47, 2-amino-7-(4-cyclohexyl-1-methyl-1H-pyrazol-3-yl)-4-methyl-7,8-dihydro-6H-quinazolin-5-one], the IC50 is less than 1000 nM.

As to `Cc1nc(N)nc2c1C(=O)CC(c1c(C3CCCCC3)cnn1C)C2` (stereo not drawn) [Compound 48, 2-amino-7-(4-cyclohexyl-2-methyl-2H-pyrazol-3-yl)-4-methyl-7,8-dihydro-6H-quinazolin-5-one], the 50% inhibitory concentration (IC50) is less than 1000 nM.

As to `Cc1ccccc1-c1ccccc1C1CC(=O)c2c(C)nc(N)nc2C1` (stereo not drawn) [Compound 49, 2-amino-4-methyl-7-(2′-methyl-1,1′-biphenyl-2-yl)-7,8-dihydroquinazolin-5(6H)-one], the IC50 is less than 1000 nM.

As to `Cc1cccc(-c2ccccc2C2CC(=O)c3c(C)nc(N)nc3C2)c1` (stereo not drawn) [Compound 50, 2-amino-4-methyl-7-(3′-methyl-1,1′-biphenyl-2-yl)-7,8-dihydroquinazolin-5(6H)-one], the IC50 was in the range of 1000 to 10000 nM.

For the molecule `Cc1nc(N)nc2c1C(=O)CC(c1ccccc1-c1ccccc1F)C2` (stereo not drawn) [Compound 51, 2-amino-7-(2′-fluoro-1,1′-biphenyl-2-yl)-4-methyl-7,8-dihydroquinazolin-5(6H)-one], the IC50 was less than 1000 nM.

For the molecule `Cc1nc(N)nc2c1C(=O)CC(c1ccccc1-c1cccc(F)c1)C2` (stereo not drawn) [Compound 52, 2-amino-7-(3′-fluoro-1,1′-biphenyl-2-yl)-4-methyl-7,8-dihydroquinazolin-5(6H)-one], the IC50 was less than 1000 nM.

For the molecule `Cc1nc(N)nc2c1C(=O)CC(c1ccccc1-c1ccc(F)cc1)C2` (stereo not drawn) [Compound 53, 2-amino-7-(4′-fluoro-1,1′-biphenyl-2-yl)-4-methyl-7,8-dihydroquinazolin-5(6H)-one], the IC50 is less than 1000 nM.

As for `Cc1nc(N)nc2c1C(=O)CC(c1cccc(-c3cccnc3F)c1)C2` (stereo not drawn) [Compound 54], the concentration for half-maximal inhibition (IC50) is greater than 10000 nM.

Consider `Cc1nc(N)nc2c1C(=O)CC(c1ccccc1-c1cccnc1F)C2` (stereo not drawn) [Compound 55, 2-amino-7-[2-(2-fluoropyridin-3-yl)phenyl]-4-methyl-7,8-dihydroquinazolin-5(6H)-one], for which the half-inhibitory concentration (IC50) was less than 1000 nM.

For the molecule `Cc1nc(N)nc2c1C(=O)CC(c1ccccc1-c1ccc(F)nc1)C2` (stereo not drawn) [Compound 56, 2-amino-7-[2-(6-fluoropyridin-3-yl)phenyl]-4-methyl-7,8-dihydroquinazolin-5(6H)-one], the IC50 was less than 1000 nM.

Take `Cc1nc(N)nc2c1C(=O)CC(c1cccnc1-c1ccccc1F)C2` (stereo not drawn) [Compound 57, 2-amino-7-[2-(2-fluorophenyl)pyridin-3-yl]-4-methyl-7,8-dihydroquinazolin-5(6H)-one]: the IC50 was less than 1000 nM.

Take `Cc1nc(N)nc2c1C(=O)CC(c1cccc(-c3ccccc3F)c1)C2` (stereo not drawn) [Compound 58]: the IC50 is greater than 10000 nM.

Regarding `Cc1nc(N)nc2c1C(=O)CC(c1ccccc1-c1c(C)noc1C)C2` (stereo not drawn) [Compound 59, 2-amino-7-[2-(3,5-dimethylisoxazol-4-yl)phenyl]-4-methyl-7,8-dihydroquinazolin-5(6H)-one], the IC50 lay in the range of 1000 to 10000 nM.

On to `Cc1nc(N)nc2c1C(=O)CC(c1ccc(F)cc1-c1cncnc1)C2` (stereo not drawn) [Compound 60, 2-amino-7-(4-fluoro-2-pyrimidin-5-yl-phenyl)-4-methyl-7,8-dihydro-6H-quinazolin-5-one], for which the IC50 is less than 1000 nM.

In the case of `Cc1nc(N)nc2c1C(=O)CC(c1cnccc1-c1cccnc1F)C2` (stereo not drawn) [Compound 61, 2-amino-7-(2-fluoro-[3,4′]bipyridinyl-3′-yl)-4-methyl-7,8-dihydro-6H-quinazolin-5-one], the IC50 is less than 1000 nM.

As to `Cc1nc(N)nc2c1C(=O)CC(c1c(O)cccc1C1=CCCCC1)C2` (stereo not drawn) [Compound 62, 2-amino-7-(2-cyclohex-1-enyl-6-hydroxy-phenyl)-4-methyl-7,8-dihydro-6H-quinazolin-5-one], the IC50 is less than 1000 nM.

For the molecule `Cc1nc(N)nc2c1C(=O)CC(c1nn(C)cc1-c1cccnc1F)C2` (stereo not drawn) [Compound 63, 2-amino-7-[4-(2-fluoro-pyridin-3-yl)-1-methyl-1H-pyrazol-3-yl]-4-methyl-7,8-dihydro-6H-quinazolin-5-one], the IC50 is less than 1000 nM.

With `Cc1nc(N)nc2c1C(=O)CC(c1c(-c3cccnc3F)cnn1C)C2` (stereo not drawn) [Compound 64, 2-amino-7-[4-(2-fluoro-pyridin-3-yl)-2-methyl-2H-pyrazol-3-yl]-4-methyl-7,8-dihydro-6H-quinazolin-5-one], the IC50 is 1000 to 10000 nM.

Turning to `Cc1nc(N)nc2c1C(=O)CC(c1ccccc1-c1cccc(C#N)c1)C2` (stereo not drawn) [Compound 65, 2′-(2-amino-4-methyl-5-oxo-5,6,7,8-tetrahydroquinazolin-7-yl)-1,1′-biphenyl-3-carbonitrile], the IC50 fell in the range of 1000 to 10000 nM.

As to `Cc1ccc(-c2ccccc2C2CC(=O)c3c(C)nc(N)nc3C2)c(C)n1` (stereo not drawn) [Compound 66, 2-amino-7-[2-(2,6-dimethylpyridin-3-yl)phenyl]-4-methyl-7,8-dihydroquinazolin-5(6H)-one], the IC50 lay in the range of 1000 to 10000 nM.

Consider `Cc1nc(N)nc2c1C(=O)CC(c1ccccc1-c1ccccc1CO)C2` (stereo not drawn) [Compound 67, 2-amino-7-[2′-(hydroxymethyl)-1,1′-biphenyl-2-yl]-4-methyl-7,8-dihydroquinazolin-5(6H)-one], for which the IC50 was less than 1000 nM.

Regarding `Cc1nc(N)nc2c1C(=O)CC(c1ccccc1-c1ccccc1CO)C2` (stereo not drawn) [Compound 68, 2-amino-7-[2′-(hydroxymethyl)-1,1′-biphenyl-2-yl]-4-methyl-7,8-dihydroquinazolin-5(6H)-one], the IC50 is less than 1000 nM.

Regarding `COc1cccc(-c2ccccc2C2CC(=O)c3c(C)nc(N)nc3C2)c1` (stereo not drawn) [Compound 69, 2-amino-7-(3′-methoxy-1,1′-biphenyl-2-yl)-4-methyl-7,8-dihydroquinazolin-5(6H)-one], the IC50 lay within 1000 to 10000 nM.

`COc1ncccc1-c1ccccc1C1CC(=O)c2c(C)nc(N)nc2C1` (stereo not drawn) [Compound 70, 2-amino-7-[2-(2-methoxypyridin-3-yl)phenyl]-4-methyl-7,8-dihydroquinazolin-5(6H)-one]: the IC50 was less than 1000 nM.
